Data as given in patent US20250066412A1, “CRYSTAL OF 4’-SUBSTITUTED NUCLEOSIDE, PREPARATION METHOD THEREFOR, COMPOSITION CONTAINING THE SAME, AND USE THEREOF” (HENAN GENUINE BIOTECH CO., LTD., priority 2022, published 2025).
Like-named read-outs stand apart in the source and are kept apart here.

Assays:
[1] = crystal form stability by XRPD after heating, drying or storage; conditions: for XRPD / crystal form after heating: heated to 120° C.
[2] = at 110° C., DSC and TGA studies, background; cited from earlier work
[3] = system: HIV; conditions: cited from earlier work; for inhibitory activities against HIV: literature reports; for EC50: E. Michailidis et al J. Biol. Chem. 2009, read-out: HIV inhibitory activity EC50
[4] = system: HIV; conditions: CN109893536 B; read-out: anti-HIV activity EC50; cited from earlier work
[5] = heated to 160° C. under nitrogen protection
[6] = vacuum drying at room temperature for 24 h
[7] = heated to 130° C. under nitrogen

## C#C[C@]1(CO)O[C@@H](n2cnc3c(N)nc(F)nc32)[C@@H](F)[C@@H]1O [type-VI crystal]
Further heated from 70° C. to 130° C.
  weight loss: 5.9%
Heated to 70° C.
  weight loss: 4.9%
[1]; [5]
  crystal form after heating (XRPD): the crystal form was transformed

## C#C[C@]1(CO)O[C@@H](n2cnc3c(N)nc(F)nc32)[C@@H](F)[C@@H]1O [type-IV crystal]
Heated to 120° C.
  weight loss: 10.6%
[1]; dried crystal left closed at room temperature for about 5 days
  XRPD after storage: increased relative intensity of the diffraction peaks and increased number of diffraction peaks
[1]; heated to 141° C. under nitrogen protection
  crystal form after heating (XRPD): transformed into a stable type-III crystal
[1]; vacuum dried at room temperature for 15 min
  XRPD after drying: decreased relative intensity of the diffraction peaks

## C#C[C@]1(CO)O[C@@H](n2cnc3c(N)nc(F)nc32)[C@@H](F)[C@@H]1O [type-XVI crystal]
[6]
  weight loss (dehydration): 14.39%
[1]; heated to 55° C. in a nitrogen atmosphere, held for 2 to 24 h
  crystal form after heating (XRPD): the type-XVII crystal was also obtained
[1]; [6]
  crystal form after drying: turned into a monohydrate crystal form

## C#C[C@]1(CO)O[C@@H](n2cnc3c(N)nc(F)nc32)[C@@H](F)[C@@H]1O [type-XII crystal]
Heated to 120° C.
  weight loss: 59.6%
[1]; vacuum dried at room temperature for 10 min
  crystal form after drying: transformed into an amorphous crystal

## C#C[C@]1(CO)O[C@@H](n2cnc3c(N)nc(F)nc32)[C@@H](F)[C@@H]1O [type-XIII crystal]
[1]; left in a solvent environment at room temperature
  crystal form in a solvent environment: transformed into the type-XIV crystal
[1]; left open and dried at room temperature for about 2 h
  crystal form after drying: the crystal form was transformed

## C#C[C@]1(CO)O[C@@H](n2cnc3c(N)nc(F)nc32)[C@@H](F)[C@@H]1O [type-I crystal]
Further heated from 110° C. to 200° C.
  weight loss: 3.5%
Heated to 110° C.
  weight loss: 13.2%
[1]; heated to 55° C. under nitrogen, cooled to room temperature, exposed to air
  XRPD after heating: the diffraction peak intensity of the sample was somewhat reduced
[1]; heated to 100° C. under nitrogen protection
  crystal form after heating (XRPD): transformed into an amorphous crystal

## C#C[C@]1(CO)O[C@@H](n2cnc3c(N)nc(F)nc32)[C@@H](F)[C@@H]1O [type-XI crystal]
Heated to 120° C.
  weight loss: 19.3%

## C#C[C@]1(CO)O[C@@H](n2cnc3c(N)nc(F)nc32)[C@@H](F)[C@@H]1O [crystal form A]
[2]
  weight loss: 9.0%

## C#C[C@]1(CO)O[C@@H](n2cnc3c(N)nc(F)nc32)[C@@H](F)[C@@H]1O [type-III crystal]
Heated to 200° C.
  weight loss: 1.2%
[1]; heated to 150° C. under nitrogen protection
  crystal form after heating (variable-temperature XRPD): the crystal form did not change

## C#C[C@]1(CO)O[C@@H](n2cnc3c(N)nc(F)nc32)[C@@H](F)[C@@H]1O [type-VII crystal]
Heated to 130° C.
  weight loss: 11.2%
[1]; [7]
  XRPD after heating: the crystal form was transformed

## C#C[C@]1(CO)O[C@@H](n2cnc3c(N)nc(F)nc32)[C@@H](F)[C@@H]1O [type-V crystal]
Further heated from 140° C. to 240° C.
  weight loss: 2.8%
Heated to 140° C.
  weight loss: 15.4%
[1]; further heated to 154° C.
  crystal form after heating (variable-temperature XRPD): transformed into another crystal
[1]; heated to 90° C. and 130° C. under nitrogen protection
  crystal form after heating (variable-temperature XRPD): substantially transformed into an amorphous crystal
[1]; purged with nitrogen for about 20 min
  crystallinity (variable-temperature XRPD): significant decrease in degree of crystallinity

## C#C[C@]1(CO)O[C@@H](n2cnc3c(N)nc(F)nc32)[C@@H](F)[C@@H]1O [type-XIV crystal]
[1]
  stability of the crystal form (overall finding): unstable intermediate state
[1]; room temperature
  crystal form after removal from the solvent environment: transformed into the type-XIII crystal

## C#C[C@]1(CO)O[C@@H](n2cnc3c(N)nc(F)nc32)[C@@H](F)[C@@H]1O [type-XVII crystal]
Dried at 90° C. for 1 to 24 h
  weight loss: 5.47%
[1]; dried at 90° C. for 1 to 24 h
  change on drying: lost one molecule of water

## C#C[C@]1(CO)O[C@@H](n2cnc3c(N)nc(F)nc32)[C@@H](F)[C@@H]1O [type-XV crystal]
Heated to 120° C.
  weight loss: 2.2%
[1]
  XRPD / crystal form after heating: the crystal form transformation occurred

## C#C[C@]1(CO)O[C@@H](n2cnc3c(N)nc(F)nc32)[C@@H](F)[C@@H]1O [type-X crystal]
Further heated from 130° C. to 160° C.
  weight loss: 4.5%
Heated to 130° C.
  weight loss: 7.9%
[1]; further heated to 145° C.
  crystal form after heating (variable-temperature XRPD): the crystal form was transformed
[1]
  XRPD / crystal form after heating: the position of the diffraction peak shifted
[1]; [7]
  XRPD after heating: the diffraction peak intensity was significantly reduced

## C#C[C@]1(CO)O[C@@H](n2cnc3c(N)nc(F)nc32)[C@@H](F)[C@@H]1O [type-II crystal]
[1]; vacuum dried at room temperature for half an hour
  crystal form after drying: transformed into a type-III crystal

## C#C[C@]1(CO)O[C@@H](n2cnc3c(N)nc(F)nc32)[C@@H](F)[C@@H]1O [type-VIII crystal]
Heated to 160° C.
  weight loss: 10.6%
[1]; [5]
  crystal form after heating (XRPD): the crystal form had been transformed

## [N-]=[N+]=N[C@]1(CO)O[C@@H](n2ccc(N)nc2=O)[C@@H](F)[C@@H]1O [compound (II)]
[3]
  inhibitory activities against HIV: significant inhibitory activities

## C#C[C@]1(CO)O[C@@H](n2cnc3c(N)nc(F)nc32)[C@@H](F)[C@@H]1O [type-IX crystal]
Heated to 160° C.
  weight loss: 20.3%
[1]; heated to 95° C. under nitrogen, cooled to room temperature, exposed to air
  crystallinity after heating (XRPD): the degree of crystallinity was further decreased
[1]; [5]
  crystal form after heating (XRPD): its crystal form had been transformed
[1]; left closed at room temperature for about 3 days
  crystallinity after storage: a reduced degree of crystallinity

## C#C[C@]1(CO)O[C@@H](n2cnc3c(N)nc(F)nc32)C[C@@H]1O [Compound 1]
[3]
  EC50: 50 pM
  inhibitory activities against HIV: significant inhibitory activities
[3]; EFdA versus EdA
  increase of HIV inhibitory activity by introduction of 2-fluorine: 2200 times

## C#C[C@]1(CO)O[C@@H](n2cnc3c(N)nc(F)nc32)[C@@H](F)[C@@H]1O [compound (3), (2R,3R,4S,5R)-5-(6-amino-2-fluoro-9H-purin-9-yl)-2-ethynyl-4-fluoro-2-(hydroxymethyl)tetrahydrofuran-3-ol]
[4]
  EC50: 900 pM

## C#C[C@]1(CO)O[C@@H](n2cnc3c(N)ncnc32)C[C@@H]1O [EdA, 4′-ethynyl-2′-deoxyadenosine]
[3]
  EC50: 11000 pM
